Earlier results in patent US20070042005A1, “Pharmaceutical composition comprising fungal cell or fragment thereof” (priority 2003, published 2007).

What was measured:
[1] = rats
[2] = in animals; owing to poor intestinal permeability

Q: For `C[C@H](N[C@@H](CCc1ccccc1)C(=O)O)C(=O)N1CCC[C@H]1C(=O)O` [Enalaprilat], which oral absorption is on record?
A: The oral absorption was “poorly absorbed orally”.

Q: Which “effect on bioavailability of cefoxitin” value [1] does the source give for `CCCCCCCCCCCCCCCC(=O)OC(CC(=O)[O-])C[N+](C)(C)C` (stereo not drawn) [Palmitoyl carnitine] here?
A: Its value is “increase the bioavailability of cefoxitin”.

Q: For `CO[C@@]1(NC(=O)Cc2cccs2)C(=O)N2C(C(=O)O)=C(COC(N)=O)CS[C@@H]21` [cefoxitin], which oral bioavailability [2] is on record?
A: The oral bioavailability was less than 5%.
